Measured values from patent US20260001875A1, “AMINOPYRIMIDINYL DERIVATIVES FOR THE TREATMENT OF PARKINSON'S DISEASE” (UNIVERSITY OF DUNDEE, priority 2022, published 2026).
pEC50: −log10 of the molar value. Where two headings read alike, the source gives them in different places.

What was measured:
Rab10 pThr73 = test: Rab10 Thr73 dephosphorylation (immunoblot) in WT MEFs; assay type: cell-based, mouse; settings: for inhibition at 0.033 µM / inhibition at 1 µM: read-out: pRab10 inhibited in WT MEFs; for pEC50: dose response, read-out: WT MEFs pRab10-dephosphrylation EC50
Method in brief: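 Wild-type mouse embryonic fibroblasts in 6-well plates were treated with LRRK2 PROTACs, with two biological replicates per condition. Cells were washed in PBS and lysed on ice in buffer containing phosphatase and protease inhibitors plus 1% Triton X-100, then clarified at 15,000 g. Rab10 Thr73 phosphorylation was measured by quantitative immunoblotting of 15 to 20 μg protein on 4-12% Bis-Tris gels.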

LRRK2^G2019S = target: T1, LRRK2^G2019S (Mus musculus, UniProt Q5S006, G2019S); test: Western blot LRRK2 degradation in LRRK2^G2019S MEFs; assay type: cell-based; settings: dose response
T1 construct: endogenous in cells; host or cells: LRRK2[G2019S] mouse embryonic fibroblasts (MEFs)
T1 sequence (Q5S006 whole entry G2019S): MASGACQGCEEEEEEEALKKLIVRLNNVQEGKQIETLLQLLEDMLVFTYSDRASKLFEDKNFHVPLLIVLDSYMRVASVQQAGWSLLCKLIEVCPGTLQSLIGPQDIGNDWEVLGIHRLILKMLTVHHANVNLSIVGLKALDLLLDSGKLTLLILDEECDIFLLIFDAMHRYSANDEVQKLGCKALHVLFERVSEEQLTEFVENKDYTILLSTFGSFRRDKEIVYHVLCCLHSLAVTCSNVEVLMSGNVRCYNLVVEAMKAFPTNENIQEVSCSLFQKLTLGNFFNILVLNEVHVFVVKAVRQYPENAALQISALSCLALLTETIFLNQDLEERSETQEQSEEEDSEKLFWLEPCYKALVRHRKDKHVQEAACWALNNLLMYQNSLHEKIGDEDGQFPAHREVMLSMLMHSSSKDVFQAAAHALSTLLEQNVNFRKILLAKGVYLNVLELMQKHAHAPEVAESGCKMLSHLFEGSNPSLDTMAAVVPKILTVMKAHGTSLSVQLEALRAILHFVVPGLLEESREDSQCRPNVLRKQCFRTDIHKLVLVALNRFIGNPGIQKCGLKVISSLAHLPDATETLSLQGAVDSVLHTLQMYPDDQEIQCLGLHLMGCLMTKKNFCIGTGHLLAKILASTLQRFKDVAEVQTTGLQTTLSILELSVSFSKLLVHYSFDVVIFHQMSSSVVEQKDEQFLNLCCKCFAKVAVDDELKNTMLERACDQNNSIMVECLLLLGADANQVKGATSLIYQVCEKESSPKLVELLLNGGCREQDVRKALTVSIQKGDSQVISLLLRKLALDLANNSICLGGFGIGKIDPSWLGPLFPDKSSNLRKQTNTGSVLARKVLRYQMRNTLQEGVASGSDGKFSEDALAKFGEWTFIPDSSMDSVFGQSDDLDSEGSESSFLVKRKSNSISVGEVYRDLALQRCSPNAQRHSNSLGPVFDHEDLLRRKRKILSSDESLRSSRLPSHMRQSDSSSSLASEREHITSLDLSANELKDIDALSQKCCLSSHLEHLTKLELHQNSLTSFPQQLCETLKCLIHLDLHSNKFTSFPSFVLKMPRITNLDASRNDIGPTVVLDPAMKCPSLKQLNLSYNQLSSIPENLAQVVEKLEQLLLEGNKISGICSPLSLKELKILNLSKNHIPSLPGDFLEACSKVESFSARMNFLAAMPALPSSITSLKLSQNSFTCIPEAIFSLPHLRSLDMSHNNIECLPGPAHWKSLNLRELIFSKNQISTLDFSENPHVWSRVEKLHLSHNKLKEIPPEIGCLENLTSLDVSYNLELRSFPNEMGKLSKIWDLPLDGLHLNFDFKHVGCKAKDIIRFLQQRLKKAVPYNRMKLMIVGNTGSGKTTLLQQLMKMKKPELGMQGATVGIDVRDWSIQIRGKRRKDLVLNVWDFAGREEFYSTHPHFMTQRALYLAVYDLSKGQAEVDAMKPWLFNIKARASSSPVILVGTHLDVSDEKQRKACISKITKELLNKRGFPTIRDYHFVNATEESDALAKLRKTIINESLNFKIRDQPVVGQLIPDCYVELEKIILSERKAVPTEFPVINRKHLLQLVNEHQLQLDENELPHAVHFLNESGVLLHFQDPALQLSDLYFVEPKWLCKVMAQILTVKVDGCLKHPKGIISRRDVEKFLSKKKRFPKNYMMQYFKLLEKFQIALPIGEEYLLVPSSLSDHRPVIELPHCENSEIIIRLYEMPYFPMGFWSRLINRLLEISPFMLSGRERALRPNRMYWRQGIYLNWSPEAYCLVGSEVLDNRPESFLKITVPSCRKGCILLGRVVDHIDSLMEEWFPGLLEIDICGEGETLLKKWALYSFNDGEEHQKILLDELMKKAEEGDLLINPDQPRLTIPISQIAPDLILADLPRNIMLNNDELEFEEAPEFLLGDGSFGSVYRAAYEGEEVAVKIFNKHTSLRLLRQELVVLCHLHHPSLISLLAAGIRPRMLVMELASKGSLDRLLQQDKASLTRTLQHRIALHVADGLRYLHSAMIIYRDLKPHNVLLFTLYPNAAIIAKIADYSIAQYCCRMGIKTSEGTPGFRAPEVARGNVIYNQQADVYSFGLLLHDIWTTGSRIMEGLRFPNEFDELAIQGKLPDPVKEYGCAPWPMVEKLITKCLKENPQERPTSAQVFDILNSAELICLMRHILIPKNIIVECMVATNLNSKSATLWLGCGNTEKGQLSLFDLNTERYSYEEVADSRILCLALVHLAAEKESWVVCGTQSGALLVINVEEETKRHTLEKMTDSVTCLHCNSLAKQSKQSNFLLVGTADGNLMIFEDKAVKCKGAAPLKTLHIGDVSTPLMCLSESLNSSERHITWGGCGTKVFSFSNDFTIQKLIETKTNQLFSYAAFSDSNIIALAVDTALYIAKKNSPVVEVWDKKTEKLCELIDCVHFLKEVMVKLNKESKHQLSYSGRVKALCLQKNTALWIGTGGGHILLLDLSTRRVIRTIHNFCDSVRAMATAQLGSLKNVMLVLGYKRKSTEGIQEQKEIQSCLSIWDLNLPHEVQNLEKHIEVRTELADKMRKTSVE

[1] = Mus musculus, 33 nM/24 h treatment
[2] = Mus musculus, time course at 300 nM, WT MEFs
[3] = Mus musculus, 33 nM/4 h treatment
[4] = Mus musculus, 1 μM/4 h treatment
[5] = Mus musculus, 1 μM/24 h treatment

`CNc1nc(Nc2ccc(C(=O)N3CCN(C[C@H]4CC[C@H](CSC(C)(C)[C@H](NC(=O)C5(F)CC5)C(=O)N5C[C@H](O)CC5C(=O)NCc5ccc(-c6scnc6C)cc5)CC4)CC3)cc2OC)ncc1Cl` (stereo partly drawn) [XL01126, (2S,4R)-1-((R)-3-((((1R,4R)-4-((4-(4-((5-chloro-4-(methylamino)pyrimidin-2-yl)amino)-3-methoxybenzoyl)piperazin-1-yl)methyl)cyclohexyl)methyl)thio)-2-(1-fluorocyclopropane-1-carboxamido)-3-methylbutanoyl)-4-hydroxy-N-(4-(4-methylthiazol-5-yl)benzyl)pyrrolidine-2-carboxamide] gave an inhibition at 0.033 µM (Rab10 pThr73; [1]) of 0 to 60%, a Dmax at 0.3 µM (Rab10 pThr73; [2]) of 84% and a DC50 (LRRK2^G2019S; 4 h treatment) of 14 nM. The “Dmax on G2019S MEFs” value (LRRK2^G2019S; 4 h treatment) was 80-90%.

With `CNc1nc(Nc2ccc(C(=O)N3CCN(CCOCCOCCSC(C)(C)[C@H](NC(=O)C4(F)CC4)C(=O)N4C[C@H](O)C[C@H]4C(=O)NCc4ccc(-c5scnc5C)cc4)CC3)cc2OC)ncc1Cl` [SD75, (2S,4R)-1-((R)-3-((2-(2-(2-(4-(4-((5-chloro-4-(methylamino)pyrimidin-2-yl)amino)-3-methoxybenzoyl)piperazin-1-yl)ethoxy)ethoxy)ethyl)thio)-2-(1-fluorocyclopropane-1-carboxamido)-3-methylbutanoyl)-4-hydroxy-N-(4-(4-methylthiazol-5-yl)benzyl)pyrrolidine-2-carboxamide] the “Selectivity Index (pRab10 dephosphorylation, WT vs G2019S MEFs)” value (Rab10 pThr73; 24 h) was 6.0, the inhibition at 0.033 µM (Rab10 pThr73; [3]) was 0 to 25% and the inhibition at 1 µM (Rab10 pThr73; [4]) was 18 to 90%. It also gave an inhibition at 1 µM (Rab10 pThr73; [5]) of 30 to 90%, a Dmax at 1 µM (Rab10 pThr73; Mus musculus, time course at 1000 nM, WT MEFs) of 41% and a pEC50 (Rab10 pThr73; 24 h treatment) of 5.64. For the same molecule, the “T1/2 of Rab10 dephosphorylation (WT)” value (Rab10 pThr73; time course at 1000 nM, WT MEFs) was 6.7 h and the “Dmax on G2019S MEFs” value (LRRK2^G2019S; 24 h treatment) was 43%.

`CNc1nc(Nc2ccc(C(=O)N3CCN(C[C@H]4CC[C@@H](CSC(C)(C)[C@H](NC(=O)C5(F)CC5)C(=O)N5C[C@H](O)CC5C(=O)NCc5ccc(-c6scnc6C)cc5)CC4)CC3)cc2OC)ncc1Cl` (stereo partly drawn) [XL01134] was tested, and the inhibition at 0.033 µM (Rab10 pThr73; [3]) was 0 to 40%, the inhibition at 0.033 µM (Rab10 pThr73; [1]) was 0 to 60% and the inhibition at 1 µM (Rab10 pThr73; [4]) was 10 to 95%. It also gave an inhibition at 1 µM (Rab10 pThr73; [5]) of 30 to 100%, a pEC50 (Rab10 pThr73; Mus musculus, 4 h treatment) of 7.13 and a Dmax at 0.3 µM (Rab10 pThr73; [2]) of 68%. The “T1/2 of Rab10 dephosphorylation (WT)” value (Rab10 pThr73; time course at 300 nM, WT MEFs) was 2.1 h, the DC50 (LRRK2^G2019S; 4 h treatment) was 7 nM and the “Dmax on G2019S MEFs” value (LRRK2^G2019S; 4 h treatment) was 78%.
